In US20220175798A1, “COMPOSITIONS COMPRISING OXYGENATED CHOLESTEROL SULFATE AND AT LEAST ONE OF POLYALKYLENE GLYCOL, CARBOXYMETHYL CELLULOSE AND POLYOXYLGLYCERIDE” (Durect Corporation, priority 2016, published 2022):

Key:
[1] = Oral pharmacokinetics in HFD-fed Golden Syrian hamsters; type: in vivo
Text: (§1) The subjects for the study were 40 Golden Syrian male hamsters. Two cohorts were provided with either regular diet (RD) or high fat diet (HFD) for 10 weeks. 25HC3 S treatment was initiated at the start of Week 11. Group 1 remained on a regular diet while HFD-fed hamsters were randomly divided into three treatment groups (Groups 2-4; Table 20).
(§2) The Vehicle was a solution of 0.5% (w/v) CMC and 0.05% (v/v) Tween-80 in water. Powdered 25HC3 S was constituted into the vehicle solution to result in drug concentrations of 2.5 and 10 mg/mL. The suspensions were homogenized for approximately 5 minutes being combined, with 10 second breaks every 30-40 seconds and swirled before dosing to maintain homogeneity. The formulated test article was prepared weekly and kept at room temperature.
(§3) Hamsters were treated with 25HC3 S by daily oral gavage for 6 weeks while maintained on RD or HFD. Each hamster received daily doses of 25HC3S or vehicle by oral gavage (N=10/group). There were two dose groups (Groups 3 and 4): 10 and 50 mg/kg, as specified in Table 20, with dose volumes of 4 and 5 mL/kg, respectively.
For pharmacokinetic (PK) analysis, blood was collected following the first 25HC3S dose. Whole blood samples were collected via the jugular vein at pre-dose, 0.5, 2, 4, 8, 12 hours (h) post dose from each hamster; however, the last blood collection may have been collected by terminal cardiac puncture with the animals deeply anesthetized by isoflurane. Blood samples were placed into tubes containing K2EDTA. The blood was gently mixed to assure distribution of the anti-coagulant and the resulting plasma samples underwent analyses to quantify 25HC3S levels.

[2] = system: APAP-induced liver failure; assay: Acetaminophen (APAP)-induced model of acute liver failure; type: in vivo, C57BL/6J mice; settings: 25 mg/kg oral gavage 1 hr (and 24 hr) post APAP 300 mg/kg; vs vehicle
Method: The subjects for the study were 52 C57BL/6J male mice (12 weeks of age; 27.4-40 g). […] All animals were in healthy condition and admitted to the study.
The Vehicle was a solution of 0.5% (w/v) CMC and 0.05% (v/v) Tween-80 in water. Powdered 25HC3 S was constituted into the vehicle solution to result in a drug concentration of 3 mg/mL. The suspensions were homogenized at 20,000 rotations per minute (rpm) for approximately 5 minutes after being combined, with 10 second breaks every 30-40 seconds and swirled before dosing to maintain homogeneity. The formulated test article was prepared weekly and kept at room temperature.
Two groups of mice (N=14/group) were challenged with 300 mg/kg APAP by oral gavage. The two groups were treated with one dose of vehicle or 25HC3 S (25 mg/kg) by oral gavage at a dose volume of 8.33 mL/kg one hour post-APAP challenge. Half of the mice in each group (N=6-7/group) were given a second dose of vehicle or 25HC3 S (25 mg/kg) at 24 hour post-APAP delivery in addition to the first dose at 1 hr. Cohort A mice (single dose) were sacrificed 24 hrs post APAP-challenge and Cohort B mice (two doses) were sacrificed at 48 hours post APAP-challenge. A parallel set of untreated age-matched mice (no APAP and vehicle administered by oral gavage) were also sacrificed at both time points to compare baseline measurements (N=6/time point; 12 in total). […]

[3] = system: high fat diet (HFD)-fed hamsters; assay: Pharmacodynamic study in HFD-fed Golden Syrian hamsters (serum chemistry, hepatic lipids, histopathology); type: in vivo
Text: as §1, §2, §3
For pharmacodynamic measures of efficacy, clinical chemistry parameters were measured by collection of fasting serum throughout the study to assess the effects of HFD and 25HC3S treatment compared to animals on a RD and given the vehicle control.
Assessments included, but were not limited to, assessment of activity, posture, respiration, emesis, seizure, hydration status, injection site assessment and overall body condition. At the end of the in-life portion of the study (Week 16), all animals were sacrificed and livers collected for biochemical and histopathology analyses.

[4] = HFD-fed hamsters, Group 3, 10 mg/kg daily oral gavage 6 weeks
[5] = HFD-fed hamsters, Group 4, 50 mg/kg daily oral gavage 6 weeks

C[C@H](CCCC(C)(C)O)[C@H]1CC[C@H]2[C@@H]3CC=C4C[C@@H](OS(=O)(=O)[O-])CC[C@]4(C)[C@H]3CC[C@]12C.[Na+] [Formulation 25HC3S, 5-cholesten-3, 25-diol, 3-sulfate]
dose-normalized AUC ([1]; 10 mg/kg oral): 195 ng·h/mL/mg | normalized Cmax ([1]; 10 mg/kg oral): 32.2 ng/mL/mg | normalized Cmax ([1]; 50 mg/kg oral): only half of the 10 mg/kg dose | mean half-life ([1]; first oral dose): 3 h | time of mean maximum plasma concentration ([1]; first oral dose, both doses (10 and 50 mg/kg)): 0.5 h | serum chemistry parameters (ALT, AST, ALK, LDH, BUN, glucose) [2]: no effect | hepatic cholesterol levels ([3]; 10 mg/kg, 6 weeks): no effect | hepatic cholesterol levels ([3]; 50 mg/kg (Group 4), 6 weeks): significantly reduced | reduction in serum cholesterol levels ([3]; 50 mg/kg (Group 4), 6 weeks of treatment (Week 16), not statistically significant): 15-18% | HFD-related liver weight gain ([3]; 6 weeks of treatment): no statistically significant effect | HDL and LDL cholesterol ([3]; 6 weeks of treatment, HFD-fed hamsters): reduced both HDL and LDL cholesterol in a dose-dependent fashion | ALT and AST levels ([3]; 6 weeks of treatment, compared to vehicle): reduced both ALT and AST levels | incidence of “normal-appearing” livers at gross necropsy ([3]; Group 4 (50 mg/kg)): 22% | Hepatic Free Fatty Acids [3, 4]: 7.3 (±0.6) Meg/mg protein | Hepatic Total Cholesterol [3, 4]: 155.5 (±37.9) μg/mg protein | Hepatic Triglyceride [3, 4]: 66.1 (±23.3) μg/mg protein | Hepatic Free Fatty Acids [3, 5]: 6.6 (±1.4) Meg/mg protein | Hepatic Triglyceride [3, 5]: 46.4 (±15.6) μg/mg protein | Hepatic Total Cholesterol ([3]; HFD-fed hamsters, Group 4, 50 mg/kg daily oral gavage 6 weeks, p < 0.05 compared to Group 2): 75.2 (±45.7) μg/mg protein | clinical signs ([3]; PO daily for 6 weeks, hamsters): did not result in any notable clinical signs | liver histopathology (H&E and Oil Red O) ([3]; dose-dependent, compared to HFD-fed control (Group 2)): considerably less microvesicular changes, reduced Oil Red 0 staining, and milder inflammation | serum triglyceride levels ([3]; treated groups vs vehicle across 6 weeks, not statistically significant): trending higher | hepatic triglyceride levels ([3]; with increasing dosage, 6 weeks, did not reach statistical significance): Reduced
